35 molecules from patent publication US20230146395A1, “Substituted Pyrimidines and Uses Thereof” (Verge Analytics, Inc., priority 2020, published 2023) can be followed below.

Usually pIC50 stands for the IC50 on a negative log10 scale, so that one unit is a factor of ten.

pIC50: −log10 of the molar value. Structures can show the parent of a compound that is named as a salt.

The target of this assay is T1, Full length human recombinant PIKFYVE (Homo sapiens, UniProt Q9Y2I7).
T1 construct: Full length human recombinant PIKFYVE; purchased Carna Biosciences (Kobe, Japan); host or cells: baculovirus expression system
T1 sequence (Q9Y2I7 whole entry): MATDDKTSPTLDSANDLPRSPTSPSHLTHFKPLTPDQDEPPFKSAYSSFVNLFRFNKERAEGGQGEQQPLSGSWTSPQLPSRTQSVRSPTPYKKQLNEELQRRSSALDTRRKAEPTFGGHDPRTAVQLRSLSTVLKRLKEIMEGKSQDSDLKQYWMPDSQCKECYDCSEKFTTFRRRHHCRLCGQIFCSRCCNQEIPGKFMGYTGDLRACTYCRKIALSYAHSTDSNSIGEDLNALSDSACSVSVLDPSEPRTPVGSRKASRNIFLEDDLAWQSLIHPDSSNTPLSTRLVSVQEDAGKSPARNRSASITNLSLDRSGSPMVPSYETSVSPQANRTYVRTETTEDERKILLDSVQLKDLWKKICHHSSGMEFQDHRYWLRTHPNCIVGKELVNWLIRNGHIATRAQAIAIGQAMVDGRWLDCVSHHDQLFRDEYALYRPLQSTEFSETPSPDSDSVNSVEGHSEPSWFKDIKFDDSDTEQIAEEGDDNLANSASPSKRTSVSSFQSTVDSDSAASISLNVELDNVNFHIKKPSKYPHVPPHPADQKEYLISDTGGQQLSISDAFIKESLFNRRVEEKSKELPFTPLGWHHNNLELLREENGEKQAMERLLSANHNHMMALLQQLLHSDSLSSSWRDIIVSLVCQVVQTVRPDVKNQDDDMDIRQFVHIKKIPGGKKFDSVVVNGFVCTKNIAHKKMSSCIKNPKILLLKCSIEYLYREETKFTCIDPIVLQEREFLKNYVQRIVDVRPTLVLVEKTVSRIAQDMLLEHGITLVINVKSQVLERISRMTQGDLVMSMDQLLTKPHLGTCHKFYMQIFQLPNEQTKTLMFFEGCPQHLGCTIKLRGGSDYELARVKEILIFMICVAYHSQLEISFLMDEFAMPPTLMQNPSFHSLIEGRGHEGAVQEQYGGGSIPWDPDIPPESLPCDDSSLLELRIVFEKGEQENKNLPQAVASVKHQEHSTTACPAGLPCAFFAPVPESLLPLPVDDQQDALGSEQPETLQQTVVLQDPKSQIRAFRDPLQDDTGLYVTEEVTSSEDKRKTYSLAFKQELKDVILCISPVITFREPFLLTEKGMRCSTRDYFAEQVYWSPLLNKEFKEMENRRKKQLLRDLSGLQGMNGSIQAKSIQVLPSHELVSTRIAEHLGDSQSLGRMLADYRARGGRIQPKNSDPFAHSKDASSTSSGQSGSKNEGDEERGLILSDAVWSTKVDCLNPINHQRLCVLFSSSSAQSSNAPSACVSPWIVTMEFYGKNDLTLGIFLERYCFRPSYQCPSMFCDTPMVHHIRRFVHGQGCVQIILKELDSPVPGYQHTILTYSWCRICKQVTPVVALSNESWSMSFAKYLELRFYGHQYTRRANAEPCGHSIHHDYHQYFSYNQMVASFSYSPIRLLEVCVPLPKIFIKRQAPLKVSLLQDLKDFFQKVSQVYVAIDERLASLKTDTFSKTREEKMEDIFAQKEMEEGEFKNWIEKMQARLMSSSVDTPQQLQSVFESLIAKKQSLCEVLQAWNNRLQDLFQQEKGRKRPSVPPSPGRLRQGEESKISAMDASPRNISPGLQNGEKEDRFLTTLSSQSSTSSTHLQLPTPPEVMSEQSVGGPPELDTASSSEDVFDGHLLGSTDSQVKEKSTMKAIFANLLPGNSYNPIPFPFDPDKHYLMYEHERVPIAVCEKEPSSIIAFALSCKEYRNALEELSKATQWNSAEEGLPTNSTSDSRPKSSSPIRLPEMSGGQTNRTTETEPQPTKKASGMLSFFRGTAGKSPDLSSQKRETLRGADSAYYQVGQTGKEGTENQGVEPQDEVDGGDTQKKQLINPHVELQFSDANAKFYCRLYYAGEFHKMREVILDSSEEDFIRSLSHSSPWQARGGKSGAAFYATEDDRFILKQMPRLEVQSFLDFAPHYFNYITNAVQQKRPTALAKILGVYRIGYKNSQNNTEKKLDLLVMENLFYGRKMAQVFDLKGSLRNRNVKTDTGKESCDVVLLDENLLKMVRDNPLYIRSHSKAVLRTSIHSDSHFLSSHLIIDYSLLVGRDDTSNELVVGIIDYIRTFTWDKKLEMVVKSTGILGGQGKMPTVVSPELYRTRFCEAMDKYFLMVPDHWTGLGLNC
Description: Inhibition of PIKfyve (microfluidic electrophoresis kinase assay, PI3P/PS substrate). Type of assay: biochemical. The following applies: 12 concentrations. The method in brief: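 Percent inhibition, from 12 concentrations, was derived from the product/(substrate+product) peak ratio separated by microfluidic electrophoresis, normalized to DMSO-only and enzyme-free controls. Reactions ran 3 h at room temperature: 2 nM N-terminal GST-PIKFYVE, 1 μM fluorescent PI3P in PS vesicles, […], HEPES pH 7.5, MgCl2/MnCl2.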
`CN1CCC(NC(=O)c2cc3nc(-n4ccc(-c5ccccc5)n4)nc(N4CCOCC4)c3o2)CC1` [Compound 151, N-(1-methyl-4-piperidyl)-4-morpholino-2-(3-phenylpyrazol-1-yl)furo[3,2-d]pyrimidine-6-carboxamide]: the negative logarithm of the IC50 (pIC50) was 6.35. For `O=C(NC1CC1)c1cc2nc(Nc3cc(-c4ccccc4)[nH]n3)nc(N3CCOCC3)c2o1` [Compound 59], the pIC50 is 8.37. In the case of `Cc1cc(-c2ccn(-c3nc(N4CCOCC4)c4oc(-c5ccccn5)cc4n3)n2)ccn1` [Compound 188, 2-[3-(2-methyl-4-pyridyl)pyrazol-1-yl]-4-morpholino-6-(2-pyridyl)furo[3,2-d]pyrimidine], the pIC50 is 5.55. Next, `Cc1c(-c2ccncc2)oc2c(N3CCOCC3)nc(-n3ccc(-c4ccccc4)n3)nc12` [Compound 181, 7-methyl-4-morpholino-2-(3-phenylpyrazol-1-yl)-6-(4-pyridyl)furo[3,2-d]pyrimidine]: 7.23; `Cc1cncc(-c2cc(Nc3nc(N4CCOCC4)c4oc(-c5ccncc5)cc4n3)[nH]n2)c1` [Compound 23, N-[5-(5-methyl-3-pyridyl)-1H-pyrazol-3-yl]-4-morpholino-6-(4-pyridyl)furo[3,2-d]pyrimidin-2-amine, hydrogen chloride]: 6.71. For `Cc1cccc(-c2ccn(-c3nc(N4CCOCC4)c4oc(C(N)=O)cc4n3)n2)c1` [Compound 94, 4-morpholino-2-(3-(m-tolyl)-1H-pyrazol-1-yl)furo[3,2-d]pyrimidine-6-carboxamide], the pIC50 is 7.06.

With `Cn1ccc(-c2cc3nc(-n4cc(-c5ccccc5)cn4)nc(N4CCOCC4)c3o2)n1` [Compound 190, 6-(1-methylpyrazol-3-yl)-4-morpholino-2-(4-phenylpyrazol-1-yl)furo[3,2-d]pyrimidine], the pIC50 is 7.91. With `O=C(NC1COC1)c1cc2nc(-n3cc(-c4ccccc4)cn3)nc(N3CCOCC3)c2o1` [Compound 174, 4-morpholino-N-(oxetan-3-yl)-2-(4-phenylpyrazol-1-yl)furo[3,2-d]pyrimidine-6-carboxamide], the pIC50 was 6.27. Under `CN1CCCC(NC(=O)c2cc3nc(-n4cc(-c5ccccc5)cn4)nc(N4CCOCC4)c3o2)CC1` (centres unmarked) [Compound 176, N-(1-methylazepan-4-yl)-4-morpholino-2-(4-phenylpyrazol-1-yl)furo[3,2-d]pyrimidine-6-carboxamide] stands 7.33; under `COCCNC(=O)c1cc2nc(Nc3cc(-c4ccccc4)[nH]n3)nc(N3CCOCC3)c2o1` [Compound 140, N-(2-methoxyethyl)-4-morpholino-2-((5-phenyl-1H-pyrazol-3-yl)amino)furo[3,2-d]pyrimidine-6-carboxamide], 7.37.

`Cc1cc(-c2cc(Nc3nc(N4CCOCC4)c4oc(-c5ccncc5)cc4n3)[nH]n2)ccn1` [Compound 22, N-(3-(2-methylpyridin-4-yl)-1H-pyrazol-5-yl)-4-morpholino-6-(pyridin-4-yl)furo[3,2-d]pyrimidin-2-amine hydrochloride]: the negative-log IC50 (pIC50) was 7.57. Next, `Cc1ccnc(-c2cc(Nc3nc(N4CCOCC4)c4oc(-c5ccncc5)cc4n3)[nH]n2)c1` [Compound 21, N-[5-(4-methyl-2-pyridyl)-1H-pyrazol-3-yl]-4-morpholino-6-(4-pyridyl)fnro[3,2-d]pyrimidin-2-amine, hydrogen chloride]: 7.57.

In the case of `CN(C)Cc1cc2nc(Nc3cc(-c4ccccc4)n[nH]3)nc(N3CCOCC3)c2o1` [Compound 14], the negative-log IC50 (pIC50) was 6.07. As for `c1cc(-c2cc3nc(Nc4cc(C5CC5)n[nH]4)nc(N4CCOCC4)c3o2)ccn1` [Compound 68, N-(5-cyclopropyl-1H-pyrazol-3-yl)-4-morpholino-6-(pyridin-4-yl)furo[3,2-d]pyrimidin-2-amine, hydrogen chloride], the pIC50 was 6.73. Next, `O=C(c1cc2nc(Nc3cc(-c4ccccc4)[nH]n3)nc(N3CCOCC3)c2o1)N1CCOCC1` [Compound 135, morpholino(4-morpholino-2-((5-phenyl-1H-pyrazol-3-yl)amino)furo[3,2-d]pyrimidin-6-yl)methanone]: 6.83; `CNC(=O)c1cc2nc(Nc3cc(Cc4ccccc4)n[nH]3)nc(N3CCOCC3)c2o1` [Compound 82]: 5.86. Under `CNC(=O)c1cc2nc(Nc3cc(C4CC4)n[nH]3)nc(N3CCOCC3)c2o1` [Compound 78, 2-((3-cyclopropyl-1H-pyrazol-5-yl)amino)-N-methyl-4-morpholinofuro[3,2-d]pyrimidine-6-carboxamide hydrochloride] stands 5.11; under `Cc1cccc(-c2cnn(-c3nc(N4CCOCC4)c4oc(C(=O)NC5CC5)c(C(F)(F)F)c4n3)c2)c1` [Compound 147, N-cyclopropyl-4-morpholino-2-(4-(m-tolyl)-1H-pyrazol-1-yl)-7-(trifluoromethyl)furo[3,2-d]pyrimidine-6-carboxamide], 5.99; under `CCNC(=O)c1cc2nc(-n3cc(-c4ccccc4)cn3)nc(N3CCOCC3)c2o1` [Compound 154, N-ethyl-4-morpholino-2-(4-phenylpyrazol-1-yl)furo[3,2-d]pyrimidine-6-carboxamide], 7.11. Next, `Cc1cccc(-c2cnn(-c3nc(N4CCOCC4)c4oc(-c5ccncc5)cc4n3)c2)c1` [Compound 42, 4-morpholino-6-(pyridin-4-yl)-2-(4-(m-tolyl)-1H-pyrazol-1-yl)furo[3,2-d]pyrimidine]: 8.05. Regarding `Cc1cccc(-c2ccn(-c3nc(N4CCOCC4)c4oc(-c5cc(C)no5)cc4n3)n2)c1` [Compound 204, 6-(3-methylisoxazol-5-yl)-4-morpholino-2-(3-(m-tolyl)-1H-pyrazol-1-yl)furo[3,2-d]pyrimidine], the negative logarithm of the IC50 (pIC50) is 8.68. Consider `c1cc(-c2cc3nc(Nc4cc(-c5ccsc5)n[nH]4)nc(N4CCOCC4)c3o2)ccn1` [Compound 76, 4-morpholino-6-(pyridin-4-yl)-N-(5-(thiophen-3-yl)-1H-pyrazol-3-yl)furo[3,2-d]pyrimidin-2-amine, hydrogen chloride], for which the negative-log IC50 (pIC50) is 8.96. For `[2H]C([2H])([2H])c1cccc(-c2ccn(-c3nc(N4CCOCC4)c4oc(-c5ccccn5)cc4n3)n2)c1` [Compound 217, 4-morpholino-6-(2-pyridyl)-2-[3-[3-(trideuteriomethyl)phenyl]pyrazol-1-yl]furo[3,2-d]pyrimidine], the pIC50 is 8.66. Turning to `CNC(=O)c1cc2nc(Nc3cc(-c4ccccc4)[nH]n3)nc(N3CCOCC3)c2o1` [Compound 138, N-methyl-4-morpholino-2-((5-phenyl-1H-pyrazol-3-yl)amino)furo[3,2-d]pyrimidine-6-carboxamide], the negative-log IC50 (pIC50) was 7.48. Under `O=C(NCC1CC1)c1cc2nc(Nc3cc(-c4ccccc4)[nH]n3)nc(N3CCOCC3)c2o1` [Compound 61, N-(cyclopropylmethyl)-4-morpholino-2-[(5-phenyl-1H-pyrazol-3-yl)amino]furo[3,2-d]pyrimidine-6-carboxamide, hydrogen chloride] stands 8.60. For `Cc1cccc(-c2ccn(-c3nc(N4CCOCC4)c4oc(-c5cc(C)n[nH]5)cc4n3)n2)c1` [Compound 173, 6-(3-methyl-1H-pyrazol-5-yl)-4-morpholino-2-[3-(m-tolyl)pyrazol-1-yl]furo[3,2-d]pyrimidine], the pIC50 was 9.22. Under `Cc1c(C(=O)NC2CC2)oc2c(N3CCOCC3)nc(-n3ccc(-c4ccccc4)n3)nc12` [Compound 184, N-cyclopropyl-7-methyl-4-morpholino-2-(3-phenylpyrazol-1-yl)furo[3,2-d]pyrimidine-6-carboxamide] stands 5.84; under `c1ccc(-c2coc(Nc3nc(N4CCOCC4)c4oc(-c5ccncc5)cc4n3)n2)cc1` [Compound 45, 4-morpholino-N-(4-phenyloxazol-2-yl)-6-(4-pyridyl)furo[3,2-d]pyrimidin-2-amine, hydrogen chloride], 7.32. `Cc1ncc(-c2cc3nc(-n4ccc(-c5ccccc5)n4)nc(N4CCOCC4)c3o2)[nH]1` [Compound 213, 6-(2-methyl-1H-imidazol-5-yl)-4-morpholino-2-(3-phenylpyrazol-1-yl)furo[3,2-d]pyrimidine]: the pIC50 was 7.97.

As to `O=C(NC1COC1)c1cc2nc(-n3ccc(-c4ccccc4)n3)nc(N3CCOCC3)c2o1` [Compound 175, 4-morpholino-N-(oxetan-3-yl)-2-(3-phenylpyrazol-1-yl)furo[3,2-d]pyrimidine-6-carboxamide], the pIC50 was 5.40. Next, `[2H]C([2H])([2H])c1cccc(-c2cnn(-c3nc(N4CCOCC4)c4oc(-c5ccn(C)n5)cc4n3)c2)c1` [Compound 215, 6-(1-methylpyrazol-3-yl)-4-morpholino-2-[4-[3-(trideuteriomethyl)phenyl]pyrazol-1-yl]furo[3,2-d]pyrimidine]: 9.70; `COc1cccc(-c2cc(Nc3nc(N4CCOCC4)c4oc(-c5ccncc5)cc4n3)[nH]n2)c1` [Compound 24, N-[5-(3-methoxypheny1)-1H-pyrazol-3-yl]-4-morpholino-6-(4-pyridyl)furo[3,2-d]pyrimidin-2-amine, hydrogen chloride]: 7.22. Consider `COCCNC(=O)c1cc2nc(-n3cc(-c4ccccc4)cn3)nc(N3CCOCC3)c2o1` [Compound 118, N-(2-methoxyethyl)-4-morpholino-2-(4-phenyl-1H-pyrazol-1-yl)furo[3,2-d]pyrimidine-6-carboxamide], for which the pIC50 was 6.51.

Consider `O=C(NCC1CC1)c1cc2nc(-n3cc(-c4ccccc4)cn3)nc(N3CCOCC3)c2o1` [Compound 116, N-(cyclopropylmethy 1)-4-morpholino-2-(4-phenyl-1H-pyrazol-1-yl)furo[3,2-d]pyrimidine-6-carboxamide], for which the pIC50 was 7.31.

For the molecule `Cn1ccc(-c2cc3nc(-n4cc(Br)cn4)nc(N4CCOCC4)c3o2)n1` [Compound 194, 2-(4-bromopyrazol-1-yl)-6-(1-methylpyrazol-3-yl)-4-morpholino-furo[3,2-d]pyrimidine], the negative logarithm of the IC50 (pIC50) was 6.57.
